Data published in patent US5709816A, “Singlet oxygen quenchers and external compositions containing the same” (Kao Corporation, priority 1899, dated 1998).

What was measured:
[1] = tested on: sunburn cells in skin of ICR/HR mice; experiment: Inhibition of sunburn cell formation (UV-B irradiation); format: in vivo; details: Mus musculus, light or radiation study, topical; 1 wt. % in ethanol; UV-B 100 mJ/cm^2; 24 hours later; read-out: Inhibition ratio regarding sunburn cell formation
From the text: Inhibition of sunburn cell formation
Ethanol solution of a test substance (1 wt. %) was applied onto the skin of ICR/HR mice. UV-B (100 mJ/cm^2) was irradiated onto the skin (health lamp SE20/SLE, Toshiba). Twenty-four hours later, the skin was biopsied and stained using hematoxylin & eosin, after which the number of sunburn cells were counted under microscope.

[2] = tested on: E. coli vector pUC119 DNA; format: biochemical; details: 0.01 wt. % in ethanol; 100 mM porphyrin; UV-A/UV-B 3 J/cm^2; agarose gel electrophoresis
Procedure: To a mixture of […] E. coli vector pUC119 DNA and 100 mM porphyrin, an ethanol solution containing a test substance (0.01 wt. %) was added. A mixture of UV-A/UV-B (3 J/cm^2, measured at 365 nm) was irradiated onto the resultant DNA mixture using a solar simulator. A 2.5-fold amount of ethanol and a 0.1-fold amount of 5M sodium acetate were added and the DNA was precipitated. The DNA pellet was dissolved in a TE buffer, and analyzed through agarose gel electrophoresis. Inhibition of DNA single strand breaks formation was measured.

[3] = tested on: skin of white guinea pigs; experiment: Inhibition of erythema formation (UV-A/UV-B irradiation); format: in vivo; details: Cavia porcellus, light or radiation study, topical; 5 wt. % in ethanol; UV-A/UV-B 40 J/cm^2; determined after 1 day and 2 days; read-out: Erythema inhibition rate
From the text: Inhibition of erythema formation
The hair of white guinea pigs (8 weeks old, female) hair was removed by shaving, and an ethanol solution containing a test substance (5 wt. %) was applied to the shaved part of each animal. A mixture of UV-A/UV-B (40 J/cm^2, measured at 365 nm using a UV-radiometer UVR-305/365-D, Torex Co.) was irradiated onto the back of each guinea pig using a solar simulator Model 1600 (Solar Light Co.). After 1 day and 2 days of irradiation, the erythema formation was visually determined by the standards of the Japanese Dermatological Association to obtain erythema inhibition ratios.

[4] = tested on: cultured human fibroblasts; experiment: Inhibition of lipid peroxide formation in cultured human fibroblasts (TBA method); format: cell-based; details: Homo sapiens, Fibroblast, light or radiation study, 0.01 wt. % in ethanol, 100 mM porphyrin, UV-A/UV-B 1 J/cm^2, read-out: Inhibition ratio regarding lipid peroxide formation
Procedure: Inhibition of lipid peroxide formation
Cultured human fibroblasts were combined with 100 mM porphyrin and a test substance (0.01 wt. %, in ethanol). A mixture of UV-A/UV-B rays (1 J/cm^2, measurements performed at 365 nm) was irradiated onto the resultant cell culture using a solar simulator. The fibroblasts were collected after the trypsin treatment, then extracted hydrophobic substances using acetone. The extracted substances were dried under nitrogen to prepare cellular lipid samples. A TBA method was used to measure lipid peroxides in cells and inhibition ratio by a test substance.

skin of ICR/HR mice = experiment: Inhibition of wrinkle formation in the skin of mice (UV-B, 16 weeks); format: in vivo, ICR/HR mouse; details: Mus musculus, topical, 2688 h; 1 wt. % in ethanol; 1 MED UV-B five times per week over sixteen weeks
From the text: Inhibition of wrinkle formation in the skin of mice
To the back of each ICR/HR mouse (female, 6 weeks old), an ethanol solution containing a test substance (1 wt. %) was applied. One (1) MED of UV-B was irradiated thereto using a health lamp SL20-SLE (Toshiba). Irradiation was repeated five times per week over sixteen weeks. Wrinkle formation was visually scored using the following five rankings.
1: Mild and questionable wrinkles are observed
2: Mild but clear and definite wrinkles are observed
3: Moderate wrinkles are observed
4: Severe wrinkles are observed
Using the above rankings, wrinkle formations were scored and the inhibition ratios were determined by the division by the blank score.

[5] = tested on: dopachrome formation from dopa; experiment: Inhibition of immediate pigment darkening (dopachrome formation from dopa, porphyrin + UV); format: biochemical; details: 0.5 wt. % in ethanol; dopa 1 mM, porphyrin 5 mM; UV-A/UV-B 3 J/cm^2; absorption at 475 nm
Procedure: Inhibition of immediate pigment darkening
An ethanol solution containing a test substance (0.5 wt. %) was added to a mixture of dopa (1 mM) and porphyrin (5 mM). A mixture of UV-A/UV-B (3 J/cm^2, measured at 365 nm) was irradiated onto the resultant mixture using a solar simulator. The amount of dopachrome formed by irradiation was determined by measuring absorption at 475 nm.

SMILES	inhibition in vivo at 1 % [1] [%]	Prevention of DNA damage [2] [%]	inhibition in vivo at 5 % [3] [%]	inhibition at 0.01 wt% [4] [%]	inhibition in vivo at 1 % (skin of ICR/HR mice) [%]	Inhibition ratio regarding immediate blackening [5] [%]
CCCCCCCCN(CC(O)CO)c1ccc(OC)cc1 (stereo not drawn) [Compound (35), N-(2,3-dihydroxypropyl)-N-octyl-p-anisidine]	81	79	78	56	42	78
COCC(O)CN(C)c1ccc(OC)cc1 (stereo not drawn) [Compound (1), N-(2-hydroxy-3-methoxypropyl)-N-methyl-p-anisidine]	79	69	68	51	47	71
CCCCN(CC(O)COC)c1ccc(C)c(C)c1 (stereo not drawn) [Compound (32), N-n-butyl-N-(2-hydroxy-3-methoxypropyl)-3,4-xylidine]	61	61	53	54	43	56
CCCCN(CC(O)CO)c1ccc(C)c(C)c1 (stereo not drawn) [Compound (34), N-n-butyl-N-(2,3-dihydroxypropyl)-3,4-xylidine]	64	64	65	52	43	63
COCC(O)CN(CC(O)COC)c1ccc(C)cc1 (stereo not drawn) [Compound (4), N,N-bis(2-hydroxy-3-methoxypropyl)-p-toluidine]	81	69	69	57	51	76
CCCCN(CC(O)COC)c1ccc(OC)cc1 (stereo not drawn) [Compound (2), N-n-butyl-N-(2-hydroxy-3-methoxypropyl)-p-anisidine]	53	50	42	43	38	57
CCCCN(CC(O)COC)c1ccccc1 (stereo not drawn) [Compound (6), N-n-butyl-N-(2-hydroxy-3-methoxypropyl)aniline]	46	47	37	40	36	53
CCCCCCCCN(CC(O)COC)c1ccc(OC)cc1 (stereo not drawn) [Compound (3), N-(2-hydroxy-3-methoxypropyl)-N-n-octyl-p-anisidine]	86	71	71	60	58	83
CCCCN(CC(O)COC)c1ccc(C)cc1 (stereo not drawn) [Compound (5), N-n-butyl-N-(2-hydroxy-3-methoxypropyl)-p-toluidine]	65	66	65	48	43	65
Cc1ccc(N(C)CC(O)CO)cc1 (stereo not drawn) [Compound (33), N-(2,3-dihydroxypropyl)-N-methyl-p-toluidine]	54	48	43	47	35	67
